Assay results taken from paper PMC5600277 (Neuropharmacology, 2017).
Where two headings read alike, the source gives them in different places.

Assays:
Format in all cases: cell-based
GLIC [1] = biological target: T1, GLIC (Gloeobacter violaceus, UniProt Q7NDN8); test: two-electrode voltage clamp in Xenopus oocytes, […] inhibition at […]; conditions: read-out: % inhibition at 30 μM
T1 sequence (Q7NDN8 44-359): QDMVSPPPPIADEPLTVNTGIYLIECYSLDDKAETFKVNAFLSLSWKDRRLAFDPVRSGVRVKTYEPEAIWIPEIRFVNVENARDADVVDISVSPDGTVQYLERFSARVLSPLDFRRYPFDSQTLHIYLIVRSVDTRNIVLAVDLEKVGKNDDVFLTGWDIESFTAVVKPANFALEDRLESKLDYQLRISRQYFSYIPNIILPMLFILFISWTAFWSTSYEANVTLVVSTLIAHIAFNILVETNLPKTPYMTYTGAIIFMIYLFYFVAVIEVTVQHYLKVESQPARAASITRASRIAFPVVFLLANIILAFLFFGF

[2] = biological target: T2, GABAρ receptor (GABAAR ρ1) (Homo sapiens, UniProt P24046); test: two-electrode voltage clamp in Xenopus oocytes, […] potentiation at […]; conditions: read-out: % potentiation at 10 μM
GLIC [3] = biological target: T1, GLIC; test: two-electrode voltage clamp in Xenopus oocytes, […] inhibition at […]; conditions: read-out: % inhibition at 30 μM; remark: listed apart in the source
[4] = biological target: T2, GABAρ receptor (GABAAR ρ1); test: as above; conditions: read-out: % inhibition at 10 μM
GLIC [5] = biological target: T1, GLIC; test: as above; conditions: read-out: % inhibition at 100 μM

T2 sequence (P24046 22-479): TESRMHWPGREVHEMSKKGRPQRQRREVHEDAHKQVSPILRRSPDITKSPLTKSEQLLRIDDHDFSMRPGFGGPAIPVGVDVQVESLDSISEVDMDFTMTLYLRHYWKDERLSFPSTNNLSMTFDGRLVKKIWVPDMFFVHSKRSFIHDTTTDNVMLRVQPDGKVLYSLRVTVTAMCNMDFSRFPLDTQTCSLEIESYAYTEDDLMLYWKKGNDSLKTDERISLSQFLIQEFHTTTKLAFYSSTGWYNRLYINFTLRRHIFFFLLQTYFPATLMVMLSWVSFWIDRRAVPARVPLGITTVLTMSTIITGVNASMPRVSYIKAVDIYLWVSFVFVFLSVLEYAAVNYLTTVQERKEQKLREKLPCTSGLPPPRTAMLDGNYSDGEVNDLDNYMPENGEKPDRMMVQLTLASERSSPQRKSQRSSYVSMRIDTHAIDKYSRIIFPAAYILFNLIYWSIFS

C[C@]12CC[C@@H](O)C[C@@H]1CC[C@@H]1[C@@H]2CC[C@]2(C)[C@@H](C(=O)CO)CC[C@@H]12 [5α-THDOC]
inhibition at 30 µM (GLIC [1]): 11 ± 2% | activation at 10 µM [2]: 42 ± 2%

C[C@]12CC[C@@H](O)C[C@H]1CC[C@@H]1[C@@H]2CC[C@]2(C)[C@@H](C(=O)CO)CC[C@@H]12 [5β-THDOC]
inhibition at 30 µM (GLIC [3]): 67 ± 3% | inhibition at 10 µM [4]: 25 ± 2%

CCCC(C)C1(CC)C(=O)NC(=O)NC1=O (centres unmarked) [PB, pentobarbital]
inhibition at 100 µM (GLIC [5]): 26 ± 6%
